Measured values published in PMC6100415, “Hepatic Metabolism of Sakuranetin and Its Modulating Effects on Cytochrome P450s and UDP-Glucuronosyltransferases” (Molecules : A Journal of Synthetic Chemistry and Natural …, 2018).

Columns and labels:
[1] = NADPH-dependent phase I metabolic stability in rat liver microsomes; format: in vitro ADME
Experimental: Metabolic stability was measured by monitoring the amount of parent compound that remained in an incubation mixture at designated incubation time points. For the phase I metabolism study, SKN (100 μM) was incubated with liver microsomes (1 mg/mL, rat, mouse, and dog; and 0.5 mg/mL, human), and an NADPH-generation cocktail consisting of nicotinamide adenine dinucleotide phosphate (NADP^+, 1 mM), glucose-6-phosphate (5 mM), glucose-6-phosphate dehydrogenase (1 unit/mL), and MgCl2 (10 mM) in potassium phosphate buffer (0.1 M, pH 7.4) in a total volume of 1 mL. To study phase II glucuronide conjugative metabolism, uridine 5′-diphosphoglucuronic acid (UDPGA) (2 mM) was added as a cofactor. The mixture was incubated in a shaking water bath, and the enzyme reaction was initiated by the addition of NADP^+, UDPGA, or both. Aliquots (100 μL) were removed at 0, 5, 15, 30, 45, and 60 min, and the reaction was terminated by adding two volumes of ice-cold methanol. […] The half-life of SKN was obtained by plotting the remaining amount of SKN against time using Prism 3.0 software (GraphPad, La Jolla, CA, USA). Hepatic intrinsic clearance (CLint, hepatic) was calculated using the following formula [20]:CLint, hepatic = (0.693/t1/2) × (g liver weight/kg body weight) × (mL incubation/mg of microsomal protein) × (mg microsomal protein concentration/g of liver)
The DAD was set at 280 nm.

[2] = system: hCAR-mediated CYP2B6 promoter; assay: CAR-mediated CYP2B6 promoter luciferase assay in HepG2 cells; format: cell-based, human; conditions: pcDNA3-CAR-transfected HepG2 cells, 24 h; CITCO 500 nM
Experimental: HepG2 cells (American Tissue Culture Collection, Manassas, VA, USA) were maintained in Dulbecco’s modified Eagle’s essential medium (DMEM), containing 10% fetal bovine serum, 1% nonessential amino acids, 1% GlutaMAX®, and 1% antibiotics/antimycotics at 37 °C in a 5% CO2 atmosphere. The expression plasmid encoding the human constitutive androstane receptor (hCAR; pcDNA3-CAR) and the pGL3-CYP2B6 luciferase construct were kindly provided by Dr. Hongbing Wang (University of Maryland, College Park, MD, USA). The plasmid encoding the human pregnane X receptor (hPXR; pcDNA3-PXR) and the pGL3-CYP3A4 luciferase construct were obtained from Dr. Masahiko Negishi at the National Institutes of Health (Bethesda, MD, USA). Cells were seeded at a density of 1.5 × 10^5 cells/well into a 24-well plate. The next day, the cells were transfected with 0.25 μg of either pcDNA3-CAR or pcDNA3-PXR and 0.25 μg of a promoter luciferase plasmid (either pGL3-CYP2B6 or pGL3-CYP3A4) using Lipofectamine 2000 (Invitrogen, Carlsbad, CA, USA) according to the manufacturer’s instructions. […] The cells were harvested and luciferase activity was measured as described previously.

estrogen receptor (ER) = target: T1, estrogen receptor (ER) (Homo sapiens, UniProt P03372); assay: Estrogen receptor agonist-like activity in ER-positive human breast cancer cells; format: cell-based; conditions: preliminary data, not shown
T1 construct: endogenous in cells
T1 sequence (P03372 1-595): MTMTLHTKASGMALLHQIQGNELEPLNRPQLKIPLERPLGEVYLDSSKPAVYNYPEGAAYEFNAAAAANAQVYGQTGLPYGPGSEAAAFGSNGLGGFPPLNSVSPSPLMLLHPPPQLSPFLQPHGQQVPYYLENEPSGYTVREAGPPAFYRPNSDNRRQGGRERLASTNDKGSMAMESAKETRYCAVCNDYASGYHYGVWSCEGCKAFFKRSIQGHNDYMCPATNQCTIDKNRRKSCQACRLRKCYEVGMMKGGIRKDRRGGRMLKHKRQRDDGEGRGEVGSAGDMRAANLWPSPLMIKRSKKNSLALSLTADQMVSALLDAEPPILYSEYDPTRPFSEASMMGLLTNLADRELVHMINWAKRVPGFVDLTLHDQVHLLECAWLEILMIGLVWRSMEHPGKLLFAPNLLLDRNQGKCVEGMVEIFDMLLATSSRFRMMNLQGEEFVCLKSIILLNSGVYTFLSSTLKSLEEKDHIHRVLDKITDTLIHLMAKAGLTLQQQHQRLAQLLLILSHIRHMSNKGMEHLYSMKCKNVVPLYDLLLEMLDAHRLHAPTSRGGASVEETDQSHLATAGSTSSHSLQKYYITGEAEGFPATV

CYP2C9 [3] = target: T2, CYP2C9 (Homo sapiens, UniProt P11712); assay: CYP inhibition in human liver microsomes, diclofenac 4′-hydroxylation (DCHY); conditions: CYP2C9, DCHY, SKN 10 μM, 15 min pre-incubation
Experimental: (§1) The formation of a metabolite from a CYP isozyme-specific phenotyping reaction (Table 4) was monitored. Each substrate (200 μM), along with SKN (10 μM), was incubated with human liver microsomes (0.5 mg/mL) and an NADPH-generating system in 0.1 M potassium phosphate buffer (pH 7.4) at 37 °C for 60 min in a total volume of 200 μL in a shaking water bath. The metabolic reaction was initiated by adding NADP^+ (1 mM) and stopped by adding 10 μL of trichloroacetic acid. In some experiments, the microsomes were pre-incubated with SKN for 15 min prior to the addition of the cofactor, in order to determine the time-dependent inhibitory effect. […] In contrast, co-incubation refers to experiments in which microsomes and cofactors were incubated in the presence of SKN. After centrifugation of incubation samples at 12,000× g for 15 min at 4 °C, the supernatant (20 μL) was injected into an HPLC-DAD system to analyze the metabolites formation (Supplementary Materials).
(§2) The DAD was set at 248 nm for phenacetin O-deethylation (PCOD), 298 nm for bupropion hydroxylation (BPHY), 276 nm for diclofenac 4′-hydroxylation (DCHY), 230 nm for tolbutamide 6-hydroxylation (TOLHY), 280 nm for dextromethorphan O-demethylation (DEXOD), and 250 nm for testosterone 6β-hydroxylation (TSTHY) and testosterone β-D-glucuronidation (TSTG).

CYP2C9 [4] = target: T2, CYP2C9; assay: CYP inhibition in human liver microsomes, tolbutamide 6-hydroxylation (TOLHY); conditions: CYP2C9, TOLHY, SKN 10 μM
Experimental: as §1, §2

T2 sequence (P11712 whole entry): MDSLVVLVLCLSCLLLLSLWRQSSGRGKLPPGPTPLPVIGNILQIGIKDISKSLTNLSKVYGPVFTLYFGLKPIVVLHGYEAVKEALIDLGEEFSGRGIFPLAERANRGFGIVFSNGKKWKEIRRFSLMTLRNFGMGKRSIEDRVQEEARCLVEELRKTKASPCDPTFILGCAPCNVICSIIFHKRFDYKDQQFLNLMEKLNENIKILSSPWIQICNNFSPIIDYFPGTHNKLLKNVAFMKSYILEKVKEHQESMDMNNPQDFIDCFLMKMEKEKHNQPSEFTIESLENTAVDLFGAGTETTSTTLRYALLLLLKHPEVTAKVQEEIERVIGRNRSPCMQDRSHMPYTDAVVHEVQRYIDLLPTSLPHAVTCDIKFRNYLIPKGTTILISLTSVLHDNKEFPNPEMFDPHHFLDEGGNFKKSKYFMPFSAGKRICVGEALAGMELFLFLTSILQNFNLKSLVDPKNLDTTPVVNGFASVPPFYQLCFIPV

SMILES: COc1cc(O)c2c(c1)OC(c1ccc(O)cc1)CC2=O (racemic) [SKN, (+/−) 7-O-methylnaringenin]
- half-life at 100 µM ([1]; pH 7.4, rat liver microsomes): 10.1 min
- CLint scaled at 100 µM ([1]; pH 7.4, rat liver microsomes, read-out: CLint, hepatic): 124 mL/min/kg
- Amount Remaining at 30 min (%) ([1]; rat liver microsomes 1 mg/mL, SKN 100 μM): 29.0%
- CYP2B6 luciferase activity increase [2]: not affected
- estrogen receptor (ER) agonist-like activity (estrogen receptor (ER)): agonist-like activity
- % Inhibition in Pre-Incubation (CYP2C9 [3]): 8.7 ± 1.4%
- % Inhibition in Pre-Incubation (CYP2C9 [4]; 15 min pre-incubation): 10.1 ± 1.2%
- % Inhibition in Co-Incubation (CYP2C9 [4]; human liver microsomes): 2.0 ± 0.6%
